Measured values from ChEMBL document CHEMBL1201862, “PubChem BioAssay data set” (2004).
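48-hour exposure; five concentrations; linearly interpolated endpoints. GI50: concentration for 50% inhibition of growth.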 Active and inactive are the calls of the source. No stated cut-off is given here; in the data, active = GI50 up to about 1.1 µM and inactive = higher.

Experiments:
Experiment in all cases: inhibition of tumour cell growth, NCI panel, 48 h
TK-10 = test system: TK-10
SW-620 = test system: SW-620
NCI-H23 = test system: NCI-H23
A549 = test system: A549
DU-145 = test system: DU-145
COLO 205 = test system: COLO 205
MDA-MB-435 = test system: MDA-MB-435
PC-3 = test system: PC-3
NCI-H522 = test system: NCI-H522
SK-OV-3 = test system: SK-OV-3
MOLT-4 = test system: MOLT-4
HCT-116 = test system: HCT-116
SK-MEL-2 = test system: SK-MEL-2
UACC-257 = test system: UACC-257
NCI-H460 = test system: NCI-H460
SK-MEL-5 = test system: SK-MEL-5
U-251 = test system: U-251
RPMI-8226 = test system: RPMI-8226
T47D = test system: T47D

Measured: GI50

C=C1CC2(C)CCC(OC(=O)C3(C)OC3C)C(C)(OC(C)=O)C2CC1=C(C)C (stereo unspecified)
inactive: TK-10 > 100 µM | SW-620 > 100 µM | NCI-H23 > 100 µM | A549 > 100 µM | DU-145 > 100 µM | COLO 205 > 100 µM | MDA-MB-435 > 100 µM | PC-3 > 100 µM | NCI-H522 > 100 µM | SK-OV-3 > 100 µM | MOLT-4 > 100 µM | HCT-116 > 100 µM | SK-MEL-2 > 100 µM | UACC-257 > 100 µM | NCI-H460 > 100 µM | SK-MEL-5 > 100 µM | U-251 > 100 µM | RPMI-8226 > 100 µM | T47D > 100 µM

N=C(N)SCc1ccc(N=C=S)cc1
inactive: TK-10 14.5 µM | SW-620 12.9 µM | NCI-H23 14.2 µM | A549 16.3 µM | DU-145 15.9 µM | COLO 205 13.4 µM | MDA-MB-435 13.1 µM | PC-3 15.9 µM | NCI-H522 10 µM | SK-OV-3 17.3 µM | MOLT-4 > 100 µM | HCT-116 14 µM | SK-MEL-2 10.4 µM | UACC-257 13.1 µM | NCI-H460 14.9 µM | SK-MEL-5 14 µM | U-251 15.2 µM | RPMI-8226 12.4 µM | T47D 13.6 µM

Cc1ccc(/N=C2\SC(=NN(C)C)S\C2=N/c2ccc(C)cc2)cc1
inactive: TK-10 > 100 µM | SW-620 > 100 µM | NCI-H23 > 100 µM | A549 > 100 µM | DU-145 > 100 µM | COLO 205 > 100 µM | MDA-MB-435 > 100 µM | PC-3 > 100 µM | NCI-H522 4.71 µM | SK-OV-3 > 100 µM | MOLT-4 > 100 µM | HCT-116 > 100 µM | SK-MEL-2 > 100 µM | UACC-257 > 100 µM | NCI-H460 > 100 µM | SK-MEL-5 > 100 µM | U-251 > 100 µM | RPMI-8226 > 100 µM | T47D > 100 µM

NS(=O)(=O)c1ccc(N2C(=O)C(=O)N(c3ccccc3)C2=S)cc1
inactive: TK-10 > 100 µM | SW-620 > 100 µM | NCI-H23 > 100 µM | A549 > 100 µM | DU-145 > 100 µM | COLO 205 > 100 µM | MDA-MB-435 > 100 µM | PC-3 > 100 µM | NCI-H522 27 µM | SK-OV-3 > 100 µM | MOLT-4 > 100 µM | HCT-116 > 100 µM | SK-MEL-2 > 100 µM | UACC-257 37.8 µM | NCI-H460 > 100 µM | SK-MEL-5 97.1 µM | U-251 > 100 µM | RPMI-8226 > 100 µM | T47D 55.1 µM
